Laboratory results published in US8779002B2, “Methods for treating a variety of diseases and conditions, and compounds useful therefor” (Salk Institute for Biological Studies, priority 2007, dated 2014).
Like-named read-outs stand apart in the source and are kept apart here.

Legend:
MC-65 cells = assay: MC65 intracellular amyloid toxicity assay; type: cell-based; conditions: for EC50: MC65; for Protection against intracellular protein aggregation and toxicity: MC-65 cells, tetracycline removal, MTT 5 days later
Experimental: FIG. 4A illustrates the viability of MC-65 cells upon exposure to the indicated concentrations of compounds, and the degree to which synthesis of the C-terminal fragment of APP is induced by the removal of tetracycline. Cell death was determined 5 days later by the MTT assay and confirmed visually. The data are plotted as percent viable, relative to controls of drug plus un-induced cells.

Amyloid = assay: Extracellular amyloid toxicity (cell culture); type: cell-based
PC12 cells = assay: Glucose starvation assay; type: cell-based; parameters: key: + = positive result or enzyme activation; conditions: Cell Culture
Experimental: FIG. 1C illustrates the results of a glucose starvation assay. PC12 cells were starved for glucose plus or minus 20 nM J147; cell viability was then determined 48 hr later using the MTT assay (T. Soucek, R. Cumming, R. Dargusch, P. Maher and D. Schubert, Neuron 39 (2003) 43-56).

[1] = test system: Schaffer collateral CA1 pyramidal cell synapses in rat hippocampal slices; assay: LTP induction in hippocampal slices; parameters: key to LTP: + = positive result or enzyme activation
Text: Hippocampal slices were exposed to J147 during the time indicated by the black bar. The field excitatory postsynaptic potential (fEPSP) slope is expressed as the percentage of the value immediately before the addition of J147.
The effect of J147 is dose-dependent. The hippocampal slices were untreated or exposed to J147 for the time indicated by the black bar, and weak tetanic stimulation was applied at time 0. The fEPSP slope is expressed as the percentage of the value immediately before the application of weak tetanic stimulation. FIG. 3B illustrates the time course of changes in the fEPSP slope.
To compare the data among the groups, the averages of the fEPSP slopes 30-60 min after tetanic stimulation were calculated as an index of LTP magnitude; the results are shown in FIG. 3C. All the data are the mean±SEM […] vs none.

CaM Kinase II alpha = assay: CaM Kinase II activation; type: cell-based; parameters: key: + = positive result or enzyme activation
Experimental: Invention compounds have the ability to activate CaM Kinase II alpha, a key enzyme involved in memory formation.
To evaluate the ability of a test compound to activate CaM Kinase II alpha, HT22 hippocampal neurons or one week old cortical neurons from embryonic 18 day rats can be prepared according to published procedures (e.g., Soucek et al., Neuron 39:43-56 (2003) and Li et al., Neuron 19:453-463 (1997)). Thus, for example, suitable cells can be treated with 1-2 μM of an exemplary invention compound for a suitable amount of time (e.g., 15, 30, 60 or 120 minutes).
Cells are then lysed and applied to a suitable gel for separation (e.g., P81 phosphocellulose paper, polyacrylamide gel containing SDS, and the like). CaMKII activity can then be assayed using an antibody that recognizes phosphothreonine from both the alpha and beta chains of CaM Kinase II. Invention compounds promote an increase in CaMKII activity of 10% or greater.

[2] = Toxicology: animal weight or overall health; type: in vivo
Wistar rats = assay: Novel object recognition task in rats; type: in vivo, rat; conditions: for Recognition index, Mean: Wistar rats, n=8
Experimental: FIG. 6 illustrates the effect of galantamine, compounds CNB-001, J147, SK186 and SKI 87 on object recognition task in Wistar rats. The data represent mean±SEM. *p<0.05 compared with the vehicle control.
This model is based on the greater spontaneous exploration of a novel object, compared with a familiar object, shown by rodents (see Ennaceur and Delacour in Behav. Brain Res. 31:47 (1988)). Male Wister rats are assessed for cognitive ability in a test apparatus comprising an open-field arena placed in a sound-attenuated room under dimmed lighting. Images of the open-field are captured by digital camera, and viewed on a monitor in an adjoining room. Each rat is subjected to the procedure separately and care is taken to remove any olfactory/taste cues by cleaning the arena and test objects with alcohol between trials and rats.
Adult male Wistar rats were employed in all rat studies. Animals were placed in the experimental rooms at postnatal day 80 and assigned unique identification numbers (tail marked). Pairs were housed in polycarbonate cages with filter tops and acclimated for 3 days prior to commencing any studies. Animals were maintained in a 12 hour light/dark cycle with room temperature maintained at 22±2° C. with a relative humidity maintained approximately 50%. Food and water were provided ad libitum.
All animals were examined, handled, and weighed for a further two days prior to initiation of the study to assure adequate health and suitability and to minimize non-specific stress associated with manipulation. Each animal was randomly assigned across the treatment groups and balanced by cage numbers. The novel object recognition experiment was performed during the animal's light cycle phase. Drug treatments were balanced across days and animals were only used once
The following compounds were used for this study—Reference compound (Galantamine; 3 mg/kg) was dissolved in 0.9% saline and administered i.p. 1 hour pre-test at a dose volume of 1 ml/kg, and all test compounds were handled in solution, and were kept at −80° C. until use. All compounds were administered orally 60 min prior to training at a volume of 1 ml/kg body weight.
Following a 5-minute habituation period, each rat was placed into the test arena in the presence of two identical objects (plastic shapes). Each rat was placed facing the same direction at the same position in the arena, and the time spent actively exploring the objects during a 5-minute test period (T1) was recorded. The rat was returned to its home cage between tests. After 24 hours, each rat was again placed in the test arena for 5 minutes (T2) in the presence of one of the familiar objects and a novel object, and the time spent exploring both objects was again recorded. The presentation order and position of the objects (left/right) was randomized between rats to prevent bias from order or place preference. A preference index for each object, the ratio of the time spent exploring either the familiar object or the novel object over the total time spent exploring both objects (during retention session T2) was used to measure cognitive function.
Data were analyzed by a one-way analysis of variance (ANOVA) followed by post-hoc comparisons with Fisher Tests when appropriate. An effect was considered significant if p<0.05. Data in the following tables are presented as the mean and standard error to the mean.

p38 = p38 phosphorylation caused by glutamate; type: cell-based; conditions: HT22 cells and primary cortical neurons
Text: A panel of 14 protein kinases was screened against Cmpd CNB-001. […] In HT22 cells and primary cortical neurons, Cmpd CNB-001 blocked p38 and JNK phosphorylation caused by glutamate by about 30%, and inhibited cell death. The phosphorylation of the other tested kinases was not altered.

[3] = Cell Culture, read-out: Amyloid Toxicity, Intracellular
[4] = 5 mg/kg orally 60 min prior to training
[5] = 10 mg/kg orally 60 min prior to training
[6] = 25 mg/kg orally 60 min prior to training

Row | SMILES | EC50 (MC-65 cells; [3]) [nM] | EC50 (MC-65 cells; Intracellular amyloid toxicity, read-out: MC65 EC50) [nM] | Protection against intracellular protein aggregation and toxicity (MC-65 cells) | EC50 (Amyloid) [nM] | Glucose Starvation (PC12 cells) | LTP [1] | Induction of LTP ([1]; after a weak tetanic stimulation (15 pulses at 100 Hz), fEPSP slope) | Basal synaptic transmission ([1]; fEPSP slope, J147 1 μM) | CaMKinase II (CaM Kinase II alpha) | Toxicology-no apparent effect on animal weight or overall health ([2]; gavage 10 d (mice)) [mg/kg] | Recognition index, Mean (Wistar rats; [4]) | Recognition index, Mean (Wistar rats; [5]) | Recognition index, Mean (Wistar rats; [6]) | Fisher's PLSD for Recognition index, Mean Diff. (*vehicle, treatment) (Wistar rats; vehicle versus 5 mg/kg oral) | Fisher's PLSD for Recognition index, Mean Diff. (*vehicle, treatment) (Wistar rats; vehicle versus 10 mg/kg oral) | Fisher's PLSD for Recognition index, Mean Diff. (*vehicle, treatment) (Wistar rats; vehicle versus 25 mg/kg oral) | Toxicology-no apparent effect on animal weight or overall health ([2]; several mo. (mice)) [ppm food] | Effect on recognition index (Wistar rats; 10 mg/kg, versus vehicle, p<0.05) | Block of p38 phosphorylation caused by glutamate (p38)
1 | COc1cccc(/C=N/N(C(=O)C(F)(F)F)c2ccc(C)cc2C)c1 [Compound J147] | 3 | 10 | neuroprotective | 10 | + | + | facilitate the induction of LTP | does not affect basal synaptic transmission | + | 300 | 63.053 | 54.213 | 51.372 | −11.130 | −2.291 | .550 |  |  | 
2 | COc1cc(/C=C/c2cc(/C=C/c3ccc(O)c(OC)c3)n(-c3ccccc3)n2)ccc1O [CNB-001] | 200 |  | neuroprotective | 500 | + | + |  |  | + |  | 63.663 | 77.964 | 45.226 | −11.741 | −26.042 | 6.697 | 500 | significantly increased | about 30%
